Source: patent US20240287138A1, “CYCLIC PEPTIDES FOR INHIBITING TNF RECEPTOR 1 ACTIVITY” (Merck Sharp & Dohme LLC, priority 2023, published 2024)
Read-outs that look alike come from different tables or passages of the source. Numbered stars: 1 amine (or outer) side, 2 acyl side, 3 side chain; on linkers, the order of the positions; unused ones are H or OH. Bridge positions count the residues as written; N and C are the ends. Square brackets hold non-standard residues; d marks the D form. Peptide text beside a SMILES is read from it. * marks the point of attachment. Trp(βS-Me,7-OMe) = COc1cccc2c([C@H](C)[C@H](N)C(=O)O)c[nH]c12; Ala(1-bicyclo(1.1.1)pentyl) = N[C@@H](CC12CC(C1)C2)C(=O)O; Trp(7-Cl) = N[C@@H](Cc1c[nH]c2c(Cl)cccc12)C(=O)O; Phe(4-CONH2) = NC(=O)c1ccc(C[C@H](N)C(=O)O)cc1; Phe(4-COOH) = N[C@@H](Cc1ccc(C(=O)O)cc1)C(=O)O; Trp(7-aza) = N[C@@H](Cc1c[nH]c2ncccc12)C(=O)O; Pip(5R-OH) = O=C(O)[C@@H]1CC[C@@H](O)CN1; X1 = O=C([C@@H]1CC[C@H](N[*:1])C1)[*:2]; Pip(4-aza) = O=C(O)[C@@H]1CNCCN1; hArg = N=C(N)NCCCC[C@H](N)C(=O)O; 4Pal = N[C@@H](Cc1ccncc1)C(=O)O; NMeE = CN[C@@H](CCC(=O)O)C(=O)O; dHyp = O=C(O)[C@H]1C[C@H](O)CN1; αMeS = C[C@](N)(CO)C(=O)O; Carboxymethyl = O=C(O)C*; Nle = CCCC[C@H](N)C(=O)O; Sar = CNCC(=O)O

Key:
[1] = target: T1, human TNFR1 extracellular domain (ECD) protein (Homo sapiens, UniProt P19438); assay: SPR binding affinity to captured human TNFR1 ECD
T1 construct: HRV 3C protease cleavage site (C); 6His (C, cleaved yes); made in house; host or cells: Sf21 insect cells (baculovirus), secreted
T1 sequence (P19438 30-211): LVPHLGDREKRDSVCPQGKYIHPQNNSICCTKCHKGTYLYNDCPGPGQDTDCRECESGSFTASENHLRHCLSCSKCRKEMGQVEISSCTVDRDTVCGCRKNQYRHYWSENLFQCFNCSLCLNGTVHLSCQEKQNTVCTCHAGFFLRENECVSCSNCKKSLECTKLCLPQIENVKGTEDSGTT
Description: (§1) B. Procedure for Binding Affinity and Selectivity measured by SPR
(§2) Affinity and selectivity for hTNFR1 and TNFR2 was determined using SPR. Human TNFR1 or TNFR2 genes (extracellular domain only) were synthesized with a C-terminal Avi-tag, HRV 3C protease cleavage site followed by a 6His-tag for affinity purification. The final gene product was cloned into pBAC™-1 vector (Millipore Sigma) for expression testing in insect cells. Constructs were transfected into Sf21 cells for baculovirus generation followed by protein expression analysis in Sf21 and Tni cell lines. Large scale expression in Sf21 cells was performed using baculovirus infected insect cells (BIICs) infected at a MOI=2.0 grown for 72 h. Target proteins secreted into the media were harvested via centrifugation and concentrated using diafiltration. TNFR was purified by immobilized metal ion affinity chromatography (IMAC) using a Ni-Sepharose HisTrap™ column (Cytiva™). Isolated TNFR had His tag removed using HRV 3C protease followed by additional purification using Ni-NTA chromatography. Biotinylation was performed on Ni-NTA flow-through fractions concentrated to 45 μM and treated with BirA ligase (1:100, μg/μg ratio) in 50 mM Tris pH 7.5, 150 mM NaCl, 50 μM biotin, 10 mM magnesium acetate, 10 mM ATP at 4° C. for 20 h. Final purification of biotin-TNFR and buffer exchange into 20 mM HEPES pH 7.5, 150 mM NaCl was performed using a HiLoad® Superdex® 200 26/60 column (Cytiva™). Highly purified protein was aliquoted and stored at −80° C.
(§3) The SPR assay uses a Cytiva™ 8K or 8K+ biosensor instrument to measure the kinetics of peptide analytes binding to captured human TNFR1 extracellular domain (ECD) protein; peptide analytes are also evaluated for any off-target binding to human TNFR2 ECD protein in parallel. Recombinant human TNFR1 ECD and human TNFR2 ECD proteins, biotinylated via engineered C-terminal avi-tags, are immobilized to a regenerable streptavidin biosensor chip surface (Cytiva™ Biotin CAPture kit, Series S; cat. #28920234). Peptide analytes binding to immobilized human TNFR1 ECD protein and their subsequent dissociation are conducted in a buffer of 10 mM HEPES pH 7.4, 150 mM NaCl, 3 mM EDTA, 0.05% P20,2% DMSO under laminar flow conditions and measured in response units (RU), which are directly proportional to the accumulated mass on the surface of the biosensor chip; the biosensor chip surface is regenerated via Cytiva™ proprietary methods between the evaluation of each peptide analyte. […] The SPR assay determines the association and dissociation rate constants, kon and koff, for each peptide analyte and, from these values, calculates the binding affinity, […] reported in Table 2.

[2] = target: T2, TNFα-induced NF-κB signal transduction pathway (TNFR1 signaling) in THP-1 cells (Homo sapiens, UniProt P19438); assay: THP-1 Lucia NF-κB reporter cell assay, inhibition of TNFα-induced NF-κB signaling; format: cell-based; settings: THP-1 NF-κB Lucia reporter cells, 10 ng/mL TNFα, 16-18 h, secreted luciferase; read-out: THP-1 IC50
T2 sequence (P19438 30-455): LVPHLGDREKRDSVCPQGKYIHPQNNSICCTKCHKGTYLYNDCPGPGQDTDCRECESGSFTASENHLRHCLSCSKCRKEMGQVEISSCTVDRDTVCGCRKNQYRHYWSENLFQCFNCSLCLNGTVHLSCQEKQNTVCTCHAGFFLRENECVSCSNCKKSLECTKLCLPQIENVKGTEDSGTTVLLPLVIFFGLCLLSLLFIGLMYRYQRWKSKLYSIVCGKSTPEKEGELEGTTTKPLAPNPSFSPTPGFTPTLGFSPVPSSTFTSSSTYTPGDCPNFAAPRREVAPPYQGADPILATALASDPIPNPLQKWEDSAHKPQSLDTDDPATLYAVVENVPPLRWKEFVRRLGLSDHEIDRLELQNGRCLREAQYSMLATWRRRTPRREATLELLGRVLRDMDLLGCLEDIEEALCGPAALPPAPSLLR
Outline: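 Macrocyclic peptides were preincubated 1 h at 37 °C with THP-1 NF-κB-Lucia reporter cells (20,000 cells/well) in antibiotic-free RPMI 1640/10% FBS, then stimulated with 10 ng/mL human TNFα overnight (16-18 h). Secreted luciferase in supernatant was read by luminescence; IC50 from 4-parameter logistic fits.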

human TNFR2 ECD protein = target: T3, human TNFR2 ECD protein (Homo sapiens, UniProt P20333); assay: SPR off-target binding (selectivity) to human TNFR2 ECD
T3 construct: HRV 3C protease cleavage site (C); 6His (C, cleaved yes); made in house; host or cells: Sf21 insect cells (baculovirus), secreted
T3 sequence (P20333 23-257): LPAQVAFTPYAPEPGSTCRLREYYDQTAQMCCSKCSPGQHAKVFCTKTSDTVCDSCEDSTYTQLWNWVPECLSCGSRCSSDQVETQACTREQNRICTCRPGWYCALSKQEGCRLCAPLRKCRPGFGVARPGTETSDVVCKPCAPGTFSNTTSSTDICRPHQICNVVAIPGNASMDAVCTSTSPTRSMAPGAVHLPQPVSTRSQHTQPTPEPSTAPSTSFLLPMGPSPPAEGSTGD
Description: as §1, §2, §3

| SMILES | Kd [1] [nM] | IC50 [2] [nM] | Kd (human TNFR2 ECD protein) [nM] | Kd ([1]; biotinylated human TNFR1 ECD on streptavidin chip, from kon and koff, read-out: SPR hTNFR1 KD) [nM] | Kd (human TNFR2 ECD protein; biotinylated human TNFR2 ECD on streptavidin chip, read-out: SPR hTNFR2 KD) [nM] |
| --- | --- | --- | --- | --- | --- |
| CCCC[C@@H]1NC(=O)[C@@H]2CC[C@@H](C2)NC(=O)[C@H]([C@@H](C)c2c[nH]c3c(OC)cccc23)NC(=O)CN(C)C(=O)[C@H](Cc2ccc(OCC(=O)O)cc2)NC(=O)[C@H](Cc2ccc(C(N)=O)cc2)NC(=O)[C@](C)(CO)NC(=O)[C@H](Cc2c[nH]c3c(Cl)cccc23)NC(=O)[C@H](Cc2ccc(OCC(=O)O)cc2)NC(=O)[C@H](CC(N)=O)NC(=O)[C@H]2C[C@H](O)CN2C(=O)[C@H](Cc2c[nH]c3ccccc23)NC(=O)[C@@H]2CC[C@@H](O)CN2C(=O)[C@H](Cc2ccncc2)NC1=O [SEQ ID NO. 3] (cyclo([4Pal][Pip(5R-OH)]W[dHyp]NY(Carboxymethyl)[Trp(7-Cl)][αMeS][Phe(4-CONH2)]Y(Carboxymethyl)[Sar][Trp(βS-Me,7-OMe)][X1][Nle])) | 0.04 | 0.5 | > 1000 |  |  |
| CCCC[C@@H]1NC(=O)[C@@H]2CC[C@@H](C2)NC(=O)[C@H]([C@@H](C)c2c[nH]c3c(OC)cccc23)NC(=O)CN(C)C(=O)[C@H](Cc2ccc(O)cc2)NC(=O)[C@H](Cc2ccc(C(=O)O)cc2)NC(=O)[C@](C)(CO)NC(=O)[C@H](Cc2c[nH]c3c(Cl)cccc23)NC(=O)[C@H](Cc2ccncc2)NC(=O)[C@H](CC(N)=O)NC(=O)[C@H](CCC(=O)O)N(C)C(=O)[C@H](Cc2c[nH]c3ccccc23)NC(=O)[C@@H]2CNCCN2C(=O)[C@H](Cc2ccncc2)NC1=O [SEQ ID NO. 5] (cyclo([4Pal][Trp(7-Cl)][αMeS][Phe(4-COOH)]Y[Sar][Trp(βS-Me,7-OMe)][X1][Nle][4Pal][Pip(4-aza)]W[NMeE]N)) |  | 1.2 |  | 0.1 | > 1000 |
| CCCC[C@@H]1NC(=O)CSC[C@@H](C(N)=O)NC(=O)[C@H]([C@@H](C)c2c[nH]c3c(OC)cccc23)NC(=O)CN(C)C(=O)[C@H](Cc2ccc(O)cc2)NC(=O)[C@H](Cc2ccc(C(=O)O)cc2)NC(=O)[C@](C)(CO)NC(=O)[C@H](Cc2c[nH]c3c(Cl)cccc23)NC(=O)[C@H](Cc2ccncc2)NC(=O)[C@H](CC(N)=O)NC(=O)[C@H](CCC(=O)O)N(C)C(=O)[C@H](Cc2c[nH]c3ncccc23)NC(=O)[C@@H]2CNCCN2C(=O)[C@H](CC23CC(C2)C3)NC1=O [SEQ ID NO. 33] ({CH2CO}-[Nle][Ala(1-bicyclo(1.1.1)pentyl)][Pip(4-aza)][Trp(7-aza)][NMeE]N[4Pal][Trp(7-Cl)][αMeS][Phe(4-COOH)]Y[Sar][Trp(βS-Me,7-OMe)]C-NH2; thioether N-14) | 0.3 | 6.8 | > 1000 |  |  |
| COc1cccc2c([C@H](C)[C@@H]3NC(=O)CN(C)C(=O)[C@H](Cc4ccc(O)cc4)NC(=O)[C@H](Cc4ccc(C(=O)O)cc4)NC(=O)[C@](C)(CO)NC(=O)[C@H](Cc4c[nH]c5c(Cl)cccc45)NC(=O)[C@H](Cc4ccncc4)NC(=O)[C@H](CC(N)=O)NC(=O)[C@H](CCC(=O)O)N(C)C(=O)[C@H](Cc4c[nH]c5ccccc45)NC(=O)[C@@H]4CNCCN4C(=O)[C@H](Cc4ccncc4)NC(=O)[C@H](CCCCNC(=N)N)NC(=O)[C@@H]4CC[C@@H](C4)NC3=O)c[nH]c12 [SEQ ID NO. 35] (cyclo([4Pal][Trp(7-Cl)][αMeS][Phe(4-COOH)]Y[Sar][Trp(βS-Me,7-OMe)][X1][hArg][4Pal][Pip(4-aza)]W[NMeE]N)) | 0.11 | 1 | > 1000 |  |  |
